Test system: R6/2 mice
Assay: Cued Two-Choice Swim Test
Assay type: in vivo, mouse
Settings: for Cued 2-CST Reversal, Correct Choice: p vs Vehicle-treated R6/2 mice / Cued 2-CST Acquisition, % of Mice Reaching Criterion: p vs Vehicle-treated R6/2 mice: BID; for Cued 2-CST Reversal, Correct Choice: p vs Vehicle-treated R6/2 mice: ANOVA; for Cued 2-CST Acquisition, % of Mice Reaching Criterion: p vs Vehicle-treated R6/2 mice: at 9 Weeks, Fisher's exact test
Description: The cued two-choice swim test was performed at 9 weeks of age. Testing was conducted under low light, white light conditions. The mice were taught to swim to (acquisition), or away from (reversal), a light positioned over the escape platform. Animals were placed within a rectangular tank (76 cm x 30 cm x 30 cm) filled with water maintained at 25°C ± 1°C. The water was rendered opaque by the addition of non-toxic white paint. The escape platform was located 0.5 cm below the surface of the water at one end of the tank. A light source with a 25W bulb (white light), oriented toward the water, was clipped to one side of the tank above the escape platform (7 cm in diameter with the borders slanted and roughened to help the rodents climb to it). Under these conditions, the light intensity is measured as 200 lux on the illuminated side of the tank, and 3 lux on the dark side of the tank. The platform was located on the lit side of the arena across acquisition trials, although the location of the lit side within the room relative to the mouse’s entry point was varied. The location of the bulb and platform was different on different trials for the same mouse. On each trial, mice were placed into the middle of the tank and allowed to swim for up to 60 sec, or until they found the platform. […] During all acquisition days, mice were given 8 trials per day (4 blocks of 2 trials, separated by an interblock interval of 20-30 minutes). Training continued in this way until each mouse performed at 75% correct choices for 2 consecutive days; upon reaching this criterion for successful acquisition of the task, mice were placed into the reversal phase on an individual basis. During reversal training, (4 blocks of 2 trials per day), the platform was placed on the dark side of the tank. On each trial during testing days, the latency to reach the platform was recorded (60 seconds if the platform was not reached) and the trial was scored as either “correct”, “incorrect” or “no choice”. The maximum number of days of acquisition was 12 days. All mice went from acquisition into the reversal phase and the experiment was stopped when 2 consecutive days of 75% criterion was reached or after a maximum of 7 days of reversal testing. A correct choice was scored if the animal turned in the direction of the platform and successfully mounted the platform. An incorrect choice was scored if the animal swam in the direction opposite the platform. […] To make a choice, a mouse had to swim within 20 cm of either end of the tank.
All values are presented as mean ± Standard Error of Mean (SEM), and differences are considered to be statistically significant at the p < 0.05 level. Statistical analysis was performed using StatsDirect statistical software. Differences between group means were analyzed by 1-way-ANOVA followed by Dunnett’s test (comparison to the control (=vehicle treated TG mice) group). The acquisition of the Cued two-choice swim test was analyzed using Fisher’s exact test.

CN1C(=O)c2nc(Cc3ccc(C(F)(F)F)cc3)[nH]c2N2C1=N[C@H]1CCC[C@H]12 [SCH-51866, (+)-cis-5,6a,7,8,9,9a-hexahydro-2-[4-[trifluro-methyl]phenylmethyl]-5-methyl-cylopent[4,5]imidazo [2,1-b]purin-4(3H)one]
Cued Two-Choice Swim Test: learning phase, reversal learning, latency to make the choice, effect in words (R6/2 mice, 9 weeks of age): did not improve any of these parameters
Cued 2-CST Reversal, Correct Choice: p vs Vehicle-treated R6/2 mice (Test Day 1, 10 mg/kg p.o.): ANOVA: p=0.117
Cued 2-CST Reversal, Correct Choice: p vs Vehicle-treated R6/2 mice (Test Day 1, 30 mg/kg p.o.): ANOVA: p=0.117
Cued 2-CST Reversal, Correct Choice: p vs Vehicle-treated R6/2 mice (Test Day 2, 10 mg/kg p.o.): ANOVA: p=0.311
Cued 2-CST Reversal, Correct Choice: p vs Vehicle-treated R6/2 mice (Test Day 2, 30 mg/kg p.o.): ANOVA: p=0.311
Cued 2-CST Reversal, Correct Choice: p vs Vehicle-treated R6/2 mice (Test Day 3, 10 mg/kg p.o.): ANOVA: p=0.573
Cued 2-CST Reversal, Correct Choice: p vs Vehicle-treated R6/2 mice (Test Day 3, 30 mg/kg p.o.): ANOVA: p=0.573
Cued 2-CST Reversal, Correct Choice: p vs Vehicle-treated R6/2 mice (Test Day 4, 10 mg/kg p.o.): ANOVA: p=0.206
Cued 2-CST Reversal, Correct Choice: p vs Vehicle-treated R6/2 mice (Test Day 4, 30 mg/kg p.o.): ANOVA: p=0.206
Cued 2-CST Reversal, Correct Choice: p vs Vehicle-treated R6/2 mice (Test Day 5, 10 mg/kg p.o.): ANOVA: p=0.057
Cued 2-CST Reversal, Correct Choice: p vs Vehicle-treated R6/2 mice (Test Day 5, 30 mg/kg p.o.): ANOVA: p=0.057
Cued 2-CST Reversal, Correct Choice: p vs Vehicle-treated R6/2 mice (Test Day 6, 10 mg/kg p.o.): ANOVA: p=0.140
Cued 2-CST Reversal, Correct Choice: p vs Vehicle-treated R6/2 mice (Test Day 6, 30 mg/kg p.o.): ANOVA: p=0.140
Cued 2-CST Acquisition, % of Mice Reaching Criterion: p vs Vehicle-treated R6/2 mice (Test Day 2, 10 mg/kg p.o.): p>0.999
Cued 2-CST Acquisition, % of Mice Reaching Criterion: p vs Vehicle-treated R6/2 mice (Test Day 2, 30 mg/kg p.o.): p=0.487
Cued 2-CST Acquisition, % of Mice Reaching Criterion: p vs Vehicle-treated R6/2 mice (Test Day 3, 10 mg/kg p.o.): p>0.999
Cued 2-CST Acquisition, % of Mice Reaching Criterion: p vs Vehicle-treated R6/2 mice (Test Day 3, 30 mg/kg p.o.): p>0.999
Cued 2-CST Acquisition, % of Mice Reaching Criterion: p vs Vehicle-treated R6/2 mice (Test Day 4, 10 mg/kg p.o.): p>0.999
Cued 2-CST Acquisition, % of Mice Reaching Criterion: p vs Vehicle-treated R6/2 mice (Test Day 4, 30 mg/kg p.o.): p>0.999
Cued 2-CST Acquisition, % of Mice Reaching Criterion: p vs Vehicle-treated R6/2 mice (Test Day 5, 10 mg/kg p.o.): p>0.999
Cued 2-CST Acquisition, % of Mice Reaching Criterion: p vs Vehicle-treated R6/2 mice (Test Day 5, 30 mg/kg p.o.): p>0.999
Cued 2-CST Acquisition, % of Mice Reaching Criterion: p vs Vehicle-treated R6/2 mice (Test Day 6, 10 mg/kg p.o.): p=0.313
Cued 2-CST Acquisition, % of Mice Reaching Criterion: p vs Vehicle-treated R6/2 mice (Test Day 6, 30 mg/kg p.o.): p>0.999
Cued 2-CST Acquisition, % of Mice Reaching Criterion: p vs Vehicle-treated R6/2 mice (Test Day 7, 10 mg/kg p.o.): p=0.508
Cued 2-CST Acquisition, % of Mice Reaching Criterion: p vs Vehicle-treated R6/2 mice (Test Day 7, 30 mg/kg p.o.): p=0.752
Cued 2-CST Acquisition, % of Mice Reaching Criterion: p vs Vehicle-treated R6/2 mice (Test Day 8, 10 mg/kg p.o.): p=0.313
Cued 2-CST Acquisition, % of Mice Reaching Criterion: p vs Vehicle-treated R6/2 mice (Test Day 8, 30 mg/kg p.o.): p=0.751
Cued 2-CST Acquisition, % of Mice Reaching Criterion: p vs Vehicle-treated R6/2 mice (Test Day 9, 10 mg/kg p.o.): p>0.999
Cued 2-CST Acquisition, % of Mice Reaching Criterion: p vs Vehicle-treated R6/2 mice (Test Day 9, 30 mg/kg p.o.): p>0.999
Cued 2-CST Acquisition, % of Mice Reaching Criterion: p vs Vehicle-treated R6/2 mice (Test Day 10, 10 mg/kg p.o.): p>0.999
Cued 2-CST Acquisition, % of Mice Reaching Criterion: p vs Vehicle-treated R6/2 mice (Test Day 10, 30 mg/kg p.o.): p>0.999
Cued 2-CST Acquisition, % of Mice Reaching Criterion: p vs Vehicle-treated R6/2 mice (Test Day 11, 10 mg/kg p.o.): p>0.999
Cued 2-CST Acquisition, % of Mice Reaching Criterion: p vs Vehicle-treated R6/2 mice (Test Day 11, 30 mg/kg p.o.): p=0.716
Cued 2-CST Acquisition, % of Mice Reaching Criterion: p vs Vehicle-treated R6/2 mice (Test Day 12, 10 mg/kg p.o.): p>0.999
Cued 2-CST Acquisition, % of Mice Reaching Criterion: p vs Vehicle-treated R6/2 mice (Test Day 12, 30 mg/kg p.o.): p>0.999

Source: paper PMC3923778 (PLoS Currents, 2014)
